Measurements taken from patent US9670213B2, “Pteridine ketone derivative and applications thereof as EGFR, BLK, and FLT3 inhibitor” (EAST CHINA UNIVERSITY OF SCIENCE AND TECHNOLOGY, priority 2012, dated 2017).

Columns and labels:
[1] = tested on: SK-BR-3 (breast cancer cells, Her2 overexpression); test: Cell proliferation and growth inhibition analysis; type: cell-based; details: Homo sapiens; SK-BR-3 cells, 72 hours; read-out: Inhibitory activity on cell proliferation (IC50, μM) SK-BR-3
Experimental: (§1) Cell proliferation and growth inhibition analysis: H1975 (non-small cell lung cancer cells, EGFR^L858/T790M), HCC827 (non-small cell lung cancer cells, EGFR^del E746-A750), A549 (non-small cell lung cancer cells, EGFR wild-type), BT474 (breast cancer cells, Her2 overexpression), SK-BR-3 (breast cancer cells, Her2 overexpression), MCF-7 (breast cancer cells, […]) cells were obtained from ATCC. Cell proliferation was evaluated by MTS assay. Cells were exposed to the process conditions for 72 hours, and the number of cells for each cell line used in the experiment was adjusted according to the absorbance value (absorbance value at 490 nm was 1.3-2.2). 6 concentration gradients (0.1 nM-10 μM) were set for the compounds to be tested, with six parallel controls for each concentration.

[2] = tested on: MCF-7; test: Cell proliferation and growth inhibition analysis; type: cell-based; details: Homo sapiens, MCF7; MCF-7 cells, 72 hours; read-out: Inhibitory activity on cell proliferation (IC50, μM) MCF-7
Experimental: as §1

[3] = tested on: BT474 (breast cancer cells, Her2 overexpression); test: Cell proliferation and growth inhibition analysis; type: cell-based; details: Homo sapiens, BT-474, 72 hours, read-out: Inhibitory activity on cell proliferation (IC50, μM) BT474
Experimental: as §1

[4] = tested on: A549 (non-small cell lung cancer cells, EGFR wild-type); test: Cell proliferation and growth inhibition analysis; type: cell-based; details: Homo sapiens, 72 hours, read-out: Inhibitory activity on cell proliferation (IC50, μM) A549
Experimental: as §1

[5] = tested on: HCC827 (non-small cell lung cancer cells, EGFR del E746-A750); test: Cell proliferation and growth inhibition analysis; type: cell-based; details: Homo sapiens, 72 hours, read-out: Inhibitory activity on cell proliferation (IC50, μM) HCC827
Experimental: (§2) Cell proliferation was evaluated by MTS assay. Cells were exposed to the process conditions for 72 hours, and the number of cells for each cell line used in the experiment was adjusted according to the absorbance value (absorbance value at 490 nm was 1.3-2.2). 6 concentration gradients (0.1 nM-10 μM) were set for the compounds to be tested, with six parallel controls for each concentration.
(§3) H1975, HCC827, A549, BT474, MCF-7, SK-BR-3 cells were cultured in the corresponding medium. Upon recovery, the cells were passaged at least two times and then used in experiments. Cells in Log phase were trypsinized and resuspended in the medium. H1975 (1000 cells per well), BT474 (1500 cells per well), MCF-7 (1500 cells per well), HCC827 (2000 cells per well), SK-BR-3 (2000 cells per well), A549 (2000 cells per well) were seeded into 96-well plates, the volume was 100 μL, and 6 rows and 7 columns were set. The plate was placed in an incubator at 37° C. of 5% carbon dioxide overnight. Compounds were dissolved in DMSO to obtain the concentration of […], and then gradually diluted to obtain the concentration of compound as […], 0.1 μM, 0.01 μM, 0.001 μM, 0.0001 μM. 2 μL of compound solution was added into 998 μL of medium, and the resulting mixture was thoroughly mixed. 100 μL of mixture was added into 96-well plate. […] After the cells were cultured for 68 hours, 20 μL of MTT (5 mg/mL) was added. After 4 hours, the supernatant was discarded and 150 μL of DMSO was added. The resulting system was shaken for 10 minutes, and the plate was read with Synergy HT (Bio TeK) (OD490). The data was calculated by GraphPad Prism version 4.0, and IC50 was obtained by non-linear regression model using dose-response curve.

[6] = tested on: H1975 (non-small cell lung cancer cells, EGFR L858R/T790M); test: Cell proliferation and growth inhibition analysis; type: cell-based; details: Homo sapiens, NCI-H1975, 72 hours, read-out: Inhibitory activity on cell proliferation (IC50, μM) H1975
Experimental: as §2, §3

[7] = biological target: FLT3 (Homo sapiens (Human), UniProt P36888); test: FLT3 kinase activity assay (Caliper); type: biochemical; details: read-out: Inhibitory activity on kinase (IC50, nM) FLT3
Experimental: (§4) Preparation of 1× kinase matrix buffer and stop buffer.
(§5) Preparation of compound solution. The compound was dissolved in 100% DMSO to a concentration, which was 50 times of the final highest inhibiting-concentration. 100 μL of the compound solution as said above was transferred into wells of 96-well plate. The above compound solution was sequentially diluted to the final desired concentration. In two blank wells of same 96-well plate, 100 μL of 100% DMSO was added as no-compound and no-kinase control, and this plate was used as the original plate.
(§6) Preparation of intermediate plate. 10 μL of compound solution was transferred from the original plate to another 96-well plate as the intermediate plate; 90 μL of 1× kinase buffer was added into each well of the intermediate plate, and the intermediate plate was shaken for 10 min.
(§7) Preparation of assay plate. 5 μL of solution from each well of intermediate plate was added into a 384-well plate, and repeated controls were set.
(§8) Kinase reaction. 2.5× kinase solution and 2.5× peptide solution were prepared. 2.5× kinase solution was transferred into assay plate. Assay plate comprised 5 μL of the compound solution in 10% DMSO. 10 μL of 2.5× kinase solution was added in each well of 384-well assay plate. […] 2.5× peptide solution was added into each well. After incubated at 28° C. for an appropriate time, 25 μL of stop buffer was added to quench the reaction. Experimental data were collected in Caliper. Curve was fitted.

[8] = biological target: EGFR-L858R/T790M (Homo sapiens (Human), UniProt P00533, L858R/T790M); test: In vitro EGFR kinase activity assay (Z'-Lyte); type: biochemical; details: read-out: Inhibitory activity on EGFR kinase (IC50, nM) T790M/L858R;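 further: Cell-free kinase reaction with peptide substrate and ATP, 1.5 h at room temperature, development cleaving unphosphorylated peptide, 10-point dilution 0.051–1000 nM, phosphopeptide as 100% phosphorylation control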
Experimental: (§9) Inhibitory effects in vitro of the compounds provided in the present invention on EGFR kinase activity was tested as follows:
(§10) 10 concentration gradients, from 5.1×10^−11 mol/L to 1.0×10^−6 mol/L, were set for all of the compounds to be tested.
(§11) 10 μL of kinase reaction system comprised 2.5 μL of compound solution, 5 μL of Kinase/peptide mixture, and 2.5 μL of ATP solution. 5 μL of phosphopeptide solution was used in place of kinase/peptide mixture as 100% phosphorylation control. […] After thoroughly mixing the solution within the plate, the plate was incubated at room temperature for 1.5 hours. 5 μL of DevelopmentSolution was added into each well, and then the plate was incubated at room temperature for another 1 hour, and non-phosphorylated peptide was cleaved within this period. Finally, the reaction was quenched by adding 5 μL of Stop Reagent. The Plate was measured with EnVision Multilabel Reader (Perkin Elmer). Experimental data were calculated by using GraphPad Prism version 4.0. Each experiment was repeated more than three times.

[9] = biological target: BLK (Homo sapiens (Human), UniProt P51451); test: BLK kinase activity assay (Caliper); type: biochemical; details: read-out: Inhibitory activity on kinase (IC50, nM) BLK
Experimental: as §4, §5, §6, §7, §8

[10] = biological target: EGFR-L858R (Homo sapiens (Human), UniProt P00533, L858R); test: In vitro EGFR kinase activity assay (Z'-Lyte); type: biochemical; details: read-out: Inhibitory activity on EGFR kinase (IC50, nM) L858R;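 further: Cell-free kinase reaction with peptide substrate and ATP, 1.5 h at room temperature, then development step cleaving non-phosphorylated peptide, 10-point dilution series 0.051–1000 nM, phosphopeptide as 100% phosphorylation control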
Experimental: as §9, §10, §11

[11] = biological target: EGFR-T790M (Homo sapiens (Human), UniProt P00533, T790M); test: In vitro EGFR kinase activity assay (Z'-Lyte); details: read-out: Inhibitory activity on EGFR kinase (IC50, nM) T790M
Experimental: as §9, §10, §11

[12] = biological target: wild-type EGFR (Homo sapiens (Human), UniProt P00533); test: In vitro EGFR kinase activity assay (Z'-Lyte); type: biochemical; details: EGFR WT; read-out: Inhibitory activity on EGFR kinase (IC50, nM) WT;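 further: Ten-point dose series from 5.1×10^−11 to 1.0×10^−6 mol/L, kinase reaction 1.5 h at room temperature, then 1 h development cleaving unphosphorylated peptide, phosphopeptide as 100% phosphorylation control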
Experimental: as §9, §10, §11

EGFR-L858R/T790M, sequence (P00533 25-1210 T790M/L858R): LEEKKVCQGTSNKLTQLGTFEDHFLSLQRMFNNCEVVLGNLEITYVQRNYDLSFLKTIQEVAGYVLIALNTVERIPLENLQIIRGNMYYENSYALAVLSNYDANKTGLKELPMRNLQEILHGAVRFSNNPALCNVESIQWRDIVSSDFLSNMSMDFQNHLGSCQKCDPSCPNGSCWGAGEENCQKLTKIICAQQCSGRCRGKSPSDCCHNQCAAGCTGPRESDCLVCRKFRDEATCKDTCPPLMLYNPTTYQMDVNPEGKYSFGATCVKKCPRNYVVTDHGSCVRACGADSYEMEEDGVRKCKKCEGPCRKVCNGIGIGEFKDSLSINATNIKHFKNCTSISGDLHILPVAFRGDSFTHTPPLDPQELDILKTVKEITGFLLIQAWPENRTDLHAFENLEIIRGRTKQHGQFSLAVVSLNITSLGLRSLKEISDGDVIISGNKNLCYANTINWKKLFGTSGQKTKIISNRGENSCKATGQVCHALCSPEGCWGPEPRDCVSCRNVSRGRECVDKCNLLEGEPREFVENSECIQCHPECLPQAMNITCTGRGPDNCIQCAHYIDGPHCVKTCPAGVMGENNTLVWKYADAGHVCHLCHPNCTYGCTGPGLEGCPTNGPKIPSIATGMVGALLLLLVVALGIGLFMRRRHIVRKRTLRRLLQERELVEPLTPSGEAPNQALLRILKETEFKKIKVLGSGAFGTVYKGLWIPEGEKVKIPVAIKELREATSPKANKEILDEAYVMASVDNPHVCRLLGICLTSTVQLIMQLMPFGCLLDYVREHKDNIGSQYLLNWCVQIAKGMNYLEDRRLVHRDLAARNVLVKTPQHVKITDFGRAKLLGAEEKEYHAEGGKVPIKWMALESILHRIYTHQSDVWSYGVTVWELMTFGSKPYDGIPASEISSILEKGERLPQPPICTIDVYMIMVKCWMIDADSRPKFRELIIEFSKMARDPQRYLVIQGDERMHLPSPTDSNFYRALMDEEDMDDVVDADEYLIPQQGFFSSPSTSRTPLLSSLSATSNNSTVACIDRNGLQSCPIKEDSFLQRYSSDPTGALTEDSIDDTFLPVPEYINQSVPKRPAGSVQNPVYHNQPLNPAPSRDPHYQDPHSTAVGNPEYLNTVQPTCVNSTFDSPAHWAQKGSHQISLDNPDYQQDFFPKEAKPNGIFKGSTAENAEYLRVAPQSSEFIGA
EGFR-T790M, sequence (P00533 25-1210 T790M): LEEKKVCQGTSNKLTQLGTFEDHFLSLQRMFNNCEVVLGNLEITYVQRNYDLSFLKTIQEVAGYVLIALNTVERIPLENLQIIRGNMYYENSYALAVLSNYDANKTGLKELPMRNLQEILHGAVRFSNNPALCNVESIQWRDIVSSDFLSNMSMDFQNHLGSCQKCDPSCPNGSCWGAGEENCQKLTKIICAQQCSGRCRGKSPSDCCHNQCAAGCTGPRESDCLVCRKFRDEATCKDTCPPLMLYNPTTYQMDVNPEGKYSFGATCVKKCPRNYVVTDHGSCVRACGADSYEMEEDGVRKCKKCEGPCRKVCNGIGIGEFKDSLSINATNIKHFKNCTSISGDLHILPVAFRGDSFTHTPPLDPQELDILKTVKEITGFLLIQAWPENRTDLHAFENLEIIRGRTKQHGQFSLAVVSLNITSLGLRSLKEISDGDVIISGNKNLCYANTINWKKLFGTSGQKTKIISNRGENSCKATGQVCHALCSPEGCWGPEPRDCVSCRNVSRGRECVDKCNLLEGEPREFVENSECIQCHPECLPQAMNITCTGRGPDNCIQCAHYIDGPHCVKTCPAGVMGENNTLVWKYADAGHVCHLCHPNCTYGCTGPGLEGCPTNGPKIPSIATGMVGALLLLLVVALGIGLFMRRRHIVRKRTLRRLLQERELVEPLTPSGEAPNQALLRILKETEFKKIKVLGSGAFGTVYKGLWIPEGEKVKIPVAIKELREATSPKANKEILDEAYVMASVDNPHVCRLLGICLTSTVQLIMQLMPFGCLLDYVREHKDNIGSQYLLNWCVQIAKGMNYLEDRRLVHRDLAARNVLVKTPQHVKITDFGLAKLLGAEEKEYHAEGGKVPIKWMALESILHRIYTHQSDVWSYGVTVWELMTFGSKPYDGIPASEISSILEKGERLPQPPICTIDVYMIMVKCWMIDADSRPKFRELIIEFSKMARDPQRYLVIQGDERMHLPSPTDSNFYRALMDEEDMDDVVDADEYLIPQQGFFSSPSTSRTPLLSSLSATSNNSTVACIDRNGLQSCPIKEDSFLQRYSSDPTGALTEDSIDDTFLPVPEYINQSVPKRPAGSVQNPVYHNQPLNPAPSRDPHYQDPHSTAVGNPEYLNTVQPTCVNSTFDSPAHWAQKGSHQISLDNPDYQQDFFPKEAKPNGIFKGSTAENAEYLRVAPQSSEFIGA
BLK, sequence (P51451 whole entry): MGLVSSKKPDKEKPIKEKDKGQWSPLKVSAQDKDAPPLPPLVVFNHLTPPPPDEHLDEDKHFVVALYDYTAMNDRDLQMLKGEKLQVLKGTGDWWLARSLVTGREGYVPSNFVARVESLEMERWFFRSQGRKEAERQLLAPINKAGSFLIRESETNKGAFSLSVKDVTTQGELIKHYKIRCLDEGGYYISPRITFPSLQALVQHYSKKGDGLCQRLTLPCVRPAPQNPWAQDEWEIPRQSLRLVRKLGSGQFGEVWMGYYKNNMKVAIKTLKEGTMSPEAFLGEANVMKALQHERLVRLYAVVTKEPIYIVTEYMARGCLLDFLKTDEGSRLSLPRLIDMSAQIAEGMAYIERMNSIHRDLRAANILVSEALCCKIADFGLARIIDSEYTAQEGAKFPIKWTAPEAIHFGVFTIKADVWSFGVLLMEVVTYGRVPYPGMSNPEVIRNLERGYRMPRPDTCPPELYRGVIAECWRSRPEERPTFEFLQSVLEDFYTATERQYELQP
EGFR-L858R, sequence (P00533 25-1210 L858R): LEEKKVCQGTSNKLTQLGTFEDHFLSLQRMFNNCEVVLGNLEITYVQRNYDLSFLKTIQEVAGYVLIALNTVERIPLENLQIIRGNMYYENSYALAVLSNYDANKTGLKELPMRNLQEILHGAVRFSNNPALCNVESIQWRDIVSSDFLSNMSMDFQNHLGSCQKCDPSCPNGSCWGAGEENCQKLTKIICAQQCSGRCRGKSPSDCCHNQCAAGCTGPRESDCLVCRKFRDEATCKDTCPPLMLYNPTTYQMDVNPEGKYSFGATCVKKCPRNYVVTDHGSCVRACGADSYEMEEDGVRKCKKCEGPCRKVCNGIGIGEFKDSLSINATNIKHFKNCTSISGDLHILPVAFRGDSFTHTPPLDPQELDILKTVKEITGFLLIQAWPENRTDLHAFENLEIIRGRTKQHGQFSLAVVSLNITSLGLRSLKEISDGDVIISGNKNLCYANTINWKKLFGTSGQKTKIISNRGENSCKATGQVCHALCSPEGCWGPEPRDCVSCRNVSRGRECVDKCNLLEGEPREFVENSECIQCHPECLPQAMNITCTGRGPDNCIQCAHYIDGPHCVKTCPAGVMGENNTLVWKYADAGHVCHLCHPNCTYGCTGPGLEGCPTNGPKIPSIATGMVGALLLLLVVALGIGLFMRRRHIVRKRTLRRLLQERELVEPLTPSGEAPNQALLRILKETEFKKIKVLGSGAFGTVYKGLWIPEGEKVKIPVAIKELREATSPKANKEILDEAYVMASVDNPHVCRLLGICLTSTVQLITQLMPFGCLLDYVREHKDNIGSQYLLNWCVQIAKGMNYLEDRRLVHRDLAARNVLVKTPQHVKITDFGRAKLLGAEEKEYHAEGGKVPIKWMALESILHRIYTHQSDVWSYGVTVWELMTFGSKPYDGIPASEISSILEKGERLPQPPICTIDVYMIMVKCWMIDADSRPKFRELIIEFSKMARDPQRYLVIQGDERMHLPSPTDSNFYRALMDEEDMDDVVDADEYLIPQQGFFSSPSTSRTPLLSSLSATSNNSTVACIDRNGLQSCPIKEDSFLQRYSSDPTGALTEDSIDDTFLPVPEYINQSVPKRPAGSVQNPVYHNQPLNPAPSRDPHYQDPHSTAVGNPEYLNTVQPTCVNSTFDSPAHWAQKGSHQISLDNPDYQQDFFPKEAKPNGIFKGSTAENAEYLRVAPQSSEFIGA
FLT3, sequence (P36888 27-993): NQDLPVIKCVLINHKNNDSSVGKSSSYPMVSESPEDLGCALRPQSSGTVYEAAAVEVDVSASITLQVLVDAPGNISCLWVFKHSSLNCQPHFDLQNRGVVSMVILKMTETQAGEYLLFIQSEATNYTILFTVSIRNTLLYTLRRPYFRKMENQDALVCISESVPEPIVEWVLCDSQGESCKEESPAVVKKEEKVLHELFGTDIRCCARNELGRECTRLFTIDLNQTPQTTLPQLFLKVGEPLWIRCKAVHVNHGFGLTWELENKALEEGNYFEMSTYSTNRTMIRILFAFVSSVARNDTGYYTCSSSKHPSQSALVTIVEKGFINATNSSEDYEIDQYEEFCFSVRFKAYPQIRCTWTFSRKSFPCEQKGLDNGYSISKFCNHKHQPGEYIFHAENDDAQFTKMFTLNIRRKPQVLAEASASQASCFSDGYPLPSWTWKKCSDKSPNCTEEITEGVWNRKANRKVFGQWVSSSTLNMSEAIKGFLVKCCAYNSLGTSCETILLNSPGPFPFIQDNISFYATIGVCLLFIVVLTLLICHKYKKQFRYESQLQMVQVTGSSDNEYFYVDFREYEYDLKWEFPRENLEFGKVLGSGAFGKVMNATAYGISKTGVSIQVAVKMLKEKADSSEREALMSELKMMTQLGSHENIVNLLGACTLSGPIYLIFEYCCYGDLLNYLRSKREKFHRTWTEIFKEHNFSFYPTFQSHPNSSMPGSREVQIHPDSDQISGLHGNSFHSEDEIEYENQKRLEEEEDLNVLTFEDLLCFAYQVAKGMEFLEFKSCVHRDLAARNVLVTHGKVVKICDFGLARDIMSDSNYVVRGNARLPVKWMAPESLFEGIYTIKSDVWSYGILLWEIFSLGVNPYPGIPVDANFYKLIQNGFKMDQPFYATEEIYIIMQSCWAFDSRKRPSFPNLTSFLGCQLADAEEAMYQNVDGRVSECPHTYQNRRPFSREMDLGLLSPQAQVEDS

Row | Compound | IC50 [5] [µM] | IC50 [6] [µM] | IC50 [7] [nM] | IC50 [8] [nM] | IC50 [9] [nM] | IC50 [10] [nM] | IC50 [12] [nM] | IC50 [1] [µM] | IC50 [2] [µM] | IC50 [3] [µM] | IC50 [4] [µM] | IC50 [11] [nM]
1 | CCC(=O)Nc1cccc(-n2c(=O)cnc3cnc(Nc4ccc(OC)cc4)nc32)c1 [Compound 007, N-(3-(2-(4-methoxyphenylamino)-7-oxo-8(7H)-pteridin-yl)phenyl) propionamide] | > 10 | > 10 | 1490 | > 10000 | > 10000 | > 10000 | > 10000 | > 10 | > 10 | > 10 | > 10 | > 10000
2 | COc1ccc(Nc2ncc3ncc(=O)n(-c4cccc(N)c4)c3n2)cc1 [Compound 005] | > 10 | > 10 | 30 | > 10000 | > 10000 | 87200 | > 10000 | > 10 | > 10 | > 10 | > 10 | > 10000
3 | C=CC(=O)Nc1ccc(-n2c(=O)cnc3cnc(Nc4ccc(N5CCOCC5)cc4)nc32)cc1 [Compound 003, N-(4-(2-(4-morpholino-phenylamino)-7-oxo-8(7H)-pteridin-yl)phenyl)acrylamide] | 3.01 | > 10 | 137 | 3300 | 4170 | 4080 | 8010 | > 10 | > 10 | > 10 | > 10 | 8700
4 | COc1ccc(Nc2ncc3ncc(=O)n(-c4ccc(N)cc4)c3n2)cc1 [Compound 001] | > 10 | > 10 | 27 | > 10000 | > 10000 | > 10000 | > 10000 | > 10 | > 10 | > 10 | > 10 | > 10000
5 | C=CC(=O)Nc1ccc(-n2c(=O)cnc3cnc(Nc4ccc(OC)cc4)nc32)cc1 [Compound 002, N-(4-(2-(4-methoxyphenylamino)-7-oxo-8(7H)-pteridin-yl)phenyl)acrylamide] | 1.29 | 2.75 | 128 | 606 | 3040 | 546 | 446 | 1.57 | 1.51 | > 10 | 1.23 | 665
6 | C=CC(=O)Nc1ccc(-n2c(=O)c(C)nc3cnc(Nc4ccc(OC)cc4)nc32)cc1 [Compound 004, N-(4-(2-(4-methoxyphenylamino)-6-methyl-7-oxo-8(7H)-pteridin-yl)phenyl)acrylamide] | 3.33 | > 10 | 206 | > 10000 | > 10000 | 4880 | 3180 | > 10 | > 10 | > 10 | > 10 | > 10000
7 | CCC(=O)Nc1ccc(-n2c(=O)cnc3cnc(Nc4ccc(OC)cc4)nc32)cc1 [Compound 008, N-(4-(2-(4-methoxyphenylamino)-7-oxo-8(7H)-pteridin-yl)phenyl) propionamide] | > 10 | > 10 | 115 | > 10000 | > 10000 | > 10000 | > 10000 | > 10 | > 10 | > 10 | 6.12 | > 10000

Now from value to compound, other results behind:

Row | IC50 [5] [µM] | IC50 [6] [µM] | IC50 [7] [nM] | IC50 [8] [nM] | IC50 [9] [nM] | IC50 [10] [nM] | IC50 [12] [nM] | Compound | IC50 [1] [µM] | IC50 [2] [µM] | IC50 [3] [µM] | IC50 [4] [µM] | IC50 [11] [nM]
8 | 0.91 | 4.65 | 152 | 39.1 | 5310 | 81.1 | 60.7 | COc1ccc(Nc2ncc3ncc(=O)n(-c4ccc(NC(=O)/C=C/CN(C)C)cc4)c3n2)cc1 [Compound 009, 4-(dimethylamino)-N-(4-(2-(4-methoxyphenylamino)-7-oxo-8(7H)-pteridin-yl)phenyl)-2-buteneamide] | 1.15 | 2.41 | 0.84 | 2.24 | 10.9
9 | 4.16 | > 10 | 4390 | 2020 | 106 | 6080 | 8090 | COc1ccc(Nc2ncc3ncc(=O)n(-c4cccc(NC(=O)/C=C/CN(C)C)c4)c3n2)cc1 [Compound 010, 4-(dimethylamino)-N-(3-(2-(4-methoxyphenylamino)-7-oxo-8(7H)-pteridin-yl)phenyl)-2-buteneamide] | 7.17 | 3.6 | 3.43 | > 10 | 2250
10 | 0.009 | 0.133 | 1590 | 8.4 | 69 | 10.1 | 10.6 | C=CC(=O)Nc1cccc(-n2c(=O)cnc3cnc(Nc4ccc(OC)cc4)nc32)c1 [Compound 006, N-(3-(2-(4-methoxyphenylamino)-7-oxo-8(7H)-pteridin-yl)phenyl) acrylamide] | 2.35 | 15 | 2.24 | 0.73 | 19.4
11 | 0.676 | 8.87 | 51 | 738 | 796 | 6380 | 1260 | C=CC(=O)Nc1ccc(-n2c(=O)cnc3cnc(Nc4ccc(N5CCN(C)CC5)cc4)nc32)cc1 [Compound 019, N-(4-(2-(4-(4-methyl-1-piperazinyl)-phenylamino)-7-oxo-8(7H)-pteridin-yl)phenyl) acrylamide] | – | – | – | – | –
